Among the test systems are DU-145 prostate; SK-OV-3 ovarian; SK-MEL-2 melanoma; KM12 colon; SN12C renal; MDA-MB-231 breast; IGROV1 ovarian; HS 578T breast; K-562 leukemia; NCI-H23 lung.
Holding throughout (assay): NCI anticancer screen, dose series, 48 h

This is an account of results in PubChem BioAssay (NCI).

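Each compound was tested at five concentrations against cells in 96-well plates for 48 hours. GI50 = concentration required for 50% inhibition of growth. TGI marks complete inhibition of growth.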 Where only a bound is given, the exact number is not on record here.

Turning to `CN1CCc2nc3sc(C(N)=O)c(N)c3c(-c3cccs3)c2C1`, the GI50 was 3.91 µM in the test on DU-145 prostate; 3.35 µM in the test on SK-OV-3 ovarian; 2.67 µM in the test with SK-MEL-2 melanoma; 2.7 µM with KM12 colon; 2.69 µM in the test on SN12C renal; 4.77 µM in the test with MDA-MB-231 breast. The GI50 was 5.16 µM in the test on IGROV1 ovarian, 3.07 µM in the test with HS 578T breast, 4.99 µM in the test with K-562 leukemia and 2.87 µM in the test with NCI-H23 lung. In addition, the TGI is 86.9 µM in the test with DU-145 prostate; > 100 µM in the test with SK-OV-3 ovarian; 6.22 µM in the test on SK-MEL-2 melanoma; > 100 µM in the test on KM12 colon; > 100 µM in the test on SN12C renal; > 100 µM in the test on MDA-MB-231 breast. Besides, the TGI in the test with IGROV1 ovarian was > 100 µM; in the test on HS 578T breast, 21.7 µM; in the test with K-562 leukemia it was > 100 µM; with NCI-H23 lung, 12.6 µM.

For `CC(=O)O[C@@H]1C[C@@]2(C)[C@@H]3CC=C4[C@@H](C[C@H](O)C(=O)C4(C)C)[C@]3(C)C(=O)C[C@]2(C)[C@H]1[C@@](C)(O)C(=O)/C=C/C(C)(C)OC(C)=O`, the TGI is 34.1 µM with DU-145 prostate; 51.5 µM in the test on SK-OV-3 ovarian; > 25.4 µM in the test on SK-MEL-2 melanoma; 39.2 µM in the test with KM12 colon; > 44.8 µM in the test on SN12C renal; > 21.8 µM in the test with MDA-MB-231 breast. Further, the TGI in the test on IGROV1 ovarian was 10.2 µM; in the test with HS 578T breast, > 100 µM; in the test with K-562 leukemia it was > 100 µM; in the test on NCI-H23 lung, 24.1 µM.

Turning to `Fc1ccc(/C=N/n2c(-c3ccc(F)c(Cl)c3)n[nH]c2=S)cc1`, the GI50 in the test with DU-145 prostate is 41.5 µM; in the test with SK-OV-3 ovarian it was 22 µM; in the test on SK-MEL-2 melanoma, 38.7 µM; with KM12 colon, 43.6 µM; with MDA-MB-231 breast, 20.2 µM; in the test on IGROV1 ovarian, 20.6 µM. Also, the GI50 with HS 578T breast is 28.8 µM; in the test on K-562 leukemia it was 19.3 µM; with NCI-H23 lung it was 18.8 µM. The TGI in the test with DU-145 prostate was > 100 µM; with SK-OV-3 ovarian it was 38.5 µM; in the test on SK-MEL-2 melanoma, > 100 µM; in the test on KM12 colon it was > 100 µM; in the test with MDA-MB-231 breast it was 38.9 µM; with IGROV1 ovarian, 48.8 µM. For the same molecule, the results for the TGI in the test with HS 578T breast, in the test with K-562 leukemia and in the test on NCI-H23 lung were 97.3 µM, 36.6 µM and 38.2 µM, respectively.

Regarding `COc1ccc2c(-c3ccnc(Nc4cccc(OC(F)(F)F)c4)n3)cnn2n1`, the GI50 was 1.35 µM in the test with DU-145 prostate; 1.19 µM in the test on SK-OV-3 ovarian; 1.39 µM in the test with SK-MEL-2 melanoma; 0.772 µM in the test with KM12 colon; 1.75 µM with SN12C renal; 3.63 µM in the test on MDA-MB-231 breast. Besides, the GI50 in the test with IGROV1 ovarian was 2.39 µM; with HS 578T breast, 0.835 µM; in the test on K-562 leukemia, 0.42 µM; in the test on NCI-H23 lung it was 1.2 µM. Besides, the TGI is 17.6 µM in the test with DU-145 prostate; 6.1 µM in the test on SK-OV-3 ovarian; 17.1 µM in the test on SK-MEL-2 melanoma; 3.95 µM in the test on KM12 colon; > 18.3 µM in the test on SN12C renal; > 25 µM in the test on MDA-MB-231 breast. Further, the TGI in the test with IGROV1 ovarian is > 12.5 µM; in the test on HS 578T breast, > 9.95 µM; in the test with K-562 leukemia, > 25 µM; with NCI-H23 lung, 7.41 µM.

Take `CC1C=CC(OC(=O)C(C)(O)CCC(O)(C(=O)OC2CC(O)C(C(C)C)CC2(C)O)C(C)C)(C(C)C)CC1` (stereo unspecified): the GI50 in the test on DU-145 prostate was 0.272 µM; in the test with SK-OV-3 ovarian it was 0.799 µM; in the test with SK-MEL-2 melanoma, 0.769 µM; in the test with KM12 colon, 0.689 µM; in the test with SN12C renal, 0.149 µM; in the test with MDA-MB-231 breast it was 0.656 µM. The GI50 in the test with IGROV1 ovarian is 0.232 µM; with HS 578T breast, 0.792 µM; in the test with K-562 leukemia it was 0.0916 µM; with NCI-H23 lung, 0.591 µM. Besides, the TGI came to 0.608 µM with DU-145 prostate; 4.1 µM in the test on SK-OV-3 ovarian; 1.64 µM in the test with SK-MEL-2 melanoma; 1.45 µM with KM12 colon; 0.602 µM in the test with SN12C renal; 1.36 µM in the test on MDA-MB-231 breast. Moreover, the TGI was determined as 0.64 µM in the test with IGROV1 ovarian, 4.84 µM in the test on HS 578T breast, 0.218 µM in the test on K-562 leukemia and 1.33 µM in the test on NCI-H23 lung.

Regarding `C=CCc1cc(Nc2c3ccc(Cl)cc3nc3ccc(OC)cc23)cc(CN(CC)CC)c1O`, the GI50 was 1.96 µM with DU-145 prostate; 1.9 µM in the test with SK-OV-3 ovarian; 1.9 µM with SK-MEL-2 melanoma; 2.08 µM in the test with KM12 colon; 2.03 µM in the test on SN12C renal; 2.35 µM with MDA-MB-231 breast. Also, the GI50 in the test with IGROV1 ovarian was 2.69 µM; in the test on HS 578T breast, 3.04 µM; with K-562 leukemia, 0.615 µM; with NCI-H23 lung, 0.559 µM. Also, the TGI in the test on DU-145 prostate was found to be 14.2 µM; in the test with SK-OV-3 ovarian, 6.62 µM; in the test on SK-MEL-2 melanoma, 4.93 µM; in the test with KM12 colon, 12.3 µM; in the test with SN12C renal it was 12.1 µM; in the test with MDA-MB-231 breast, 10.8 µM. Besides, the TGI worked out at 21.1 µM with IGROV1 ovarian, 14.3 µM in the test on HS 578T breast, 4.11 µM in the test on K-562 leukemia and 9.91 µM in the test on NCI-H23 lung.

For the molecule `O=C(CN1N=C(c2ccc(F)cc2)CCC1=O)Nc1nc2ccccc2s1`, the GI50 in the test on DU-145 prostate was > 25.6 µM; in the test with SK-OV-3 ovarian, > 100 µM; in the test on SK-MEL-2 melanoma it was > 89.8 µM; in the test on KM12 colon, > 25.9 µM; in the test with SN12C renal, 15.7 µM; in the test on MDA-MB-231 breast, 1.24 µM. Further, the results for the GI50 in the test with IGROV1 ovarian, in the test with HS 578T breast and in the test on K-562 leukemia were 0.165 µM, 6.75 µM and 5.32 µM, respectively. In addition, the TGI is > 100 µM with DU-145 prostate; > 100 µM in the test with SK-OV-3 ovarian; > 100 µM in the test on SK-MEL-2 melanoma; > 100 µM in the test with KM12 colon; > 100 µM in the test with SN12C renal; 3.47 µM with MDA-MB-231 breast. The figures for the TGI in the test with IGROV1 ovarian, in the test on HS 578T breast and with K-562 leukemia were 0.361 µM, 66 µM and > 100 µM, respectively.

For the molecule `CCN1C(=O)N(CC)C2C1NN=c1s/c(=C\c3ccc(F)cc3)c(=O)n12` (stereo unspecified), the GI50 in the test on DU-145 prostate was 0.3 µM; in the test with SK-OV-3 ovarian, 0.343 µM; with SK-MEL-2 melanoma, 0.425 µM; in the test on KM12 colon, 0.0913 µM; in the test on SN12C renal it was 0.615 µM; in the test with MDA-MB-231 breast it was 0.406 µM. For the same molecule, the GI50 is 0.584 µM with IGROV1 ovarian, 0.183 µM with HS 578T breast, 0.0566 µM in the test on K-562 leukemia and 0.547 µM in the test on NCI-H23 lung. Further, the TGI with DU-145 prostate is > 37.8 µM; with SK-OV-3 ovarian it was > 100 µM; in the test with SK-MEL-2 melanoma, > 100 µM; with KM12 colon, > 100 µM; in the test with SN12C renal, > 100 µM; in the test on MDA-MB-231 breast it was > 80.2 µM. Also, the TGI with IGROV1 ovarian, in the test with HS 578T breast, in the test with K-562 leukemia and with NCI-H23 lung was > 100 µM each time.
